In patent publication US20040157800A1, “Ascorbyl derivatives of carnitines and cosmetic compositions containing same” (priority 2001, published 2004):
Where a name gives a salt, the structure may show the parent alone.

Test: Weight increase, appearance and flowability after exposure to humidity (hygroscopicity)
Assay type: physicochemical
Conditions: for Appearance / Weight increase (%): 60% relative humidity at 25° C. for 42 hours; for Hygroscopicity of the solid (in words): isolated crystalline solid; for Flowability: time needed by a 10-gram sample to pass through a funnel of 4 mm diameter, after 60% relative humidity at 25° C. for 42 hours
Method: In the following Table 1, the weight increase (%) and the flowability of the compounds of the invention are compared with those of L-carnitine and acetyl L-carnitine inner salts following exposure of the compounds to 60% relative humidity at 25° C. for 42 hours. Reference method:
Pharmaeuropa November 1996.

Molecule	Appearance	Weight increase (%)	Hygroscopicity of the solid (in words)	Flowability [s]
C[N+](C)(C)C[C@H](O)CC(=O)[O-] [L-carnitine Inner salt, L-carnitine inner salt, reference compound]	deliquescent	19	–	–
CC(=O)O[C@H](CC(=O)[O-])C[N+](C)(C)C [acetyl L-carnitine Inner salt, acetyl L-carnitine inner salt, reference compound]	deliquescent	20	–	–
Acetyl L-Carnitine Magnesium Ascorbyl Phosphate [Example 2]	no variation	0.14	non-hygroscopic	6
L-Carnitine Magnesium Ascorbyl Phosphate [Example 1]	no variation	0.12	non-hygroscopic	5
